The record followed here is paper PMC10800876, “Evaluation of proline-rich antimicrobial peptides as potential lead structures for novel antimycotics against Cryptococcus neoformans” (Frontiers in Microbiology, 2024).

Assay [1] has as its system C. neoformans 1841 (serotype D). As to conditions: for activity of Cf-labeled peptide relative to the corresponding unlabeled peptide: C. neoformans 1841.
The subject of assay [2] is C. neoformans KN99α (serotype A, mating type MATα).
Assay [3] has as its system C. neoformans H99 (serotype A).
[4] abbreviates: C. neoformans 1841, read after 24 h, mean of three replicates (n = 3).
Where [5] appears, read: C. neoformans 1841, read after 48 h, mean of three replicates (n = 3).
Setting [6] is: broth microdilution, 50% SAB in phosphate buffer, 30°C, read after 24 h, n = 6.
The mark [7] stands for this setting: broth microdilution, 50% SAB in phosphate buffer, 30°C, read after 48 h, n = 6.

Values after ≈ are worked out from the molar mass of the structure shown. Like-named read-outs stand apart in the source and are kept apart here. Starred links: 1 amine or outer side, 2 acyl side, 3 side chain; linkers in the order of their positions; H or OH if unused. Non-standard residues stand in square brackets, D forms with d. Residues, ends and D or L forms follow the SMILES beside them. *: point of attachment. 5FAM = O=C1OC2(c3ccc(O)cc3Oc3cc(O)ccc32)c2ccc(C(=O)*)cc21; δOrn(α-TMG) = CN(C)C(=N[C@@H](CCCN[*:1])C(=O)[*:2])N(C)C; Ac6c = NC1(C(=O)O)CCCCC1; Orn = NCCC[C@H](N)C(=O)O

In the case of `CC(C)C[C@H](NC(=O)[C@H](Cc1ccc(O)cc1)NC(=O)[C@@H]1CCCN1C(=O)[C@H](CCCNC(=N)N)NC(=O)[C@@H]1CCCN1C(=O)[C@H](CCCCN)NC(=O)[C@H](CCCCN)NC(=O)[C@@H]1CCCN1C(=O)[C@H](CCCNC(=N)N)NC(=O)C1(NC(=O)c2ccc3c(c2)C(=O)OC32c3ccc(O)cc3Oc3cc(O)ccc32)CCCCC1)C(=O)N1CCC[C@H]1C(=O)N[C@@H](CCCNC(=N)N)C(=O)N1CCC[C@H]1C(=O)N[C@@H](CCCNC(=N)N)C(=O)N1CCC[C@H]1C(=O)N1CCC[C@H]1C(=O)N[C@@H](CCCNC(=N)N)C(=O)N1CCC[C@H]1C(=O)N[C@H](C(=O)N[C@@H](CCCNC(=N)N)C(N)=O)C(C)C` [Cf-Chex1Arg20 D4K] (5FAM-[Ac6c]RPKKPRPYLPRPRPPRPVR-NH2), in assay [1] (1841 (serotype D, 48 h)), the “MIC (after 48 h)” value was 1.6 µM (≈ 4.55 µg/mL). Further, in assay [1], the “activity of Cf-labeled peptide relative to the corresponding unlabeled peptide” value is recorded as “slightly less active”. In addition, the “MIC (mg/L) 24 h, Cf-labeled peptides” value in assay [1] (setting [4]) was 8 mg/L (≈ 2.81 µM). In addition, the “MIC (mg/L) 48 h, Cf-labeled peptides” value in assay [1] (setting [5]) stood at 8 mg/L (≈ 2.81 µM).

`CC[C@H](C)[C@H](NC(=O)[C@H](CCCNC(=O)c1ccc2c(c1)C(=O)OC21c2ccc(O)cc2Oc2cc(O)ccc21)N=C(N(C)C)N(C)C)C(=O)N[C@@H](CCCN)C(=O)N[C@H](C(=O)N[C@@H](CCCN)C(=O)N[C@@H](CCCNC(=N)N)C(=O)N1CCC[C@H]1C(=O)N[C@H](C(=O)N[C@@H](Cc1ccc(O)cc1)C(=O)N[C@@H](CCCN)C(=O)N1CCC[C@H]1C(=O)N[C@@H](CCCNC(=N)N)C(=O)N1CCC[C@H]1C(=O)N[C@@H](CCCNC(=N)N)C(=O)N1CCC[C@H]1C(=O)N1CCC[C@H]1C(=O)N[C@@H](Cc1c[nH]cn1)C(=O)N1CCC[C@H]1C(=O)N[C@@H](CCCNC(=N)N)C(=O)N[C@@H](CC(C)C)C(=O)O)C(C)C)[C@@H](C)CC` [Cf-Api795] (5FAM-[δOrn(α-TMG)]I[Orn]I[Orn]RPVY[Orn]PRPRPPHPRL-OH): the “MIC (after 48 h)” value in assay [1] (1841 (serotype D, 48 h)) stood at 3.2 µM (≈ 9.21 µg/mL). Further, in assay [1], the “activity of Cf-labeled peptide relative to the corresponding unlabeled peptide” value is on record as “slightly more active”. The “MIC (mg/L) 24 h, Cf-labeled peptides” value in assay [1] (setting [4]) is 4 mg/L (≈ 1.39 µM). The “MIC (mg/L) 48 h, Cf-labeled peptides” value in assay [1] (setting [5]) is listed as 4 mg/L (≈ 1.39 µM).

Regarding `CC[C@H](C)[C@H](NC(=O)[C@H](Cc1ccc(O)cc1)NC(=O)[C@@H](NC(=O)[C@@H]1CCCN1C(=O)[C@H](CCCNC(=N)N)NC(=O)[C@H](CC(N)=O)NC(=O)[C@H](CC(N)=O)NC(=O)CNC(=O)c1ccc2c(c1)C(=O)OC21c2ccc(O)cc2Oc2cc(O)ccc21)C(C)C)C(=O)N1CCC[C@H]1C(=O)N[C@@H](CCC(N)=O)C(=O)N1CCC[C@H]1C(=O)N[C@@H](CCCNC(=N)N)C(=O)N1CCC[C@H]1C(=O)N1CCC[C@H]1C(=O)N[C@@H](Cc1c[nH]cn1)C(=O)N1CCC[C@H]1C(=O)N[C@@H](CCCNC(=N)N)C(=O)N[C@@H](CC(C)C)C(=O)O` [Cf-Apidaecin 1b] (5FAM-GNNRPVYIPQPRPPHPRL-OH), the “MIC (mg/L) 24 h, Cf-labeled peptides” value in assay [1] (1841 (serotype D, 24 h)) is reported as >128 mg/L. Further, in assay [1] (1841 (serotype D, 48 h)), the “MIC (after 48 h)” value is > 61 µM and the “MIC (mg/L) 48 h, Cf-labeled peptides” value is listed as >128 mg/L.

As to `CC[C@H](C)[C@H](NC(=O)[C@H](Cc1ccc(O)cc1)NC(=O)[C@H](CC(N)=O)NC(=O)[C@@H](N)CCCN)C(=O)N[C@@H](CCCN)C(=O)N[C@@H](CCCNC(=N)N)C(=O)N1CCC[C@H]1C(=O)N1CCC[C@H]1C(=O)N[C@@H](CCCNC(=N)N)C(=O)N1CCC[C@H]1C(=O)N[C@@H](CCCNC(=N)N)C(=O)N1CCC[C@H]1C(=O)N[C@@H](CC(C)C)C(=O)N[C@@H](Cc1ccc(O)cc1)C(=O)N1CCC[C@H]1C(=O)N1CCC[C@H]1C(=O)N[C@@H](CCCCN)C(=O)N[C@@H](CC(=O)O)C(=O)N[C@H](C(N)=O)C(C)C` [Onc72 rev] (H-[Orn]NYI[Orn]RPPRPRPLYPPKDV-NH2), in assay [2] (KN99α (serotype A, mating type MATα, 24 h)), the “MIC (μmol/L) KN99α 24 h” value came out at 28 µmol/L (≈ 64.6 µg/mL). For the same compound, the “MIC (μmol/L) KN99α 48 h” value in assay [2] (KN99α (serotype A, mating type MATα, 48 h)) was 56 µmol/L (≈ 129 µg/mL). Further, the “MIC (μmol/L) H99 24 h” value in assay [3] (H99 (serotype A, 24 h)) came to 28 µmol/L (≈ 64.6 µg/mL). The “MIC (μmol/L) H99 48 h” value in assay [3] (H99 (serotype A, 48 h)) was 56 µmol/L (≈ 129 µg/mL). Further, the “MIC (μmol/L) 1841 24 h” value in assay [1] (1841 (serotype D, 24 h, pH 7.5)) turned out to be 28 µmol/L (≈ 64.6 µg/mL). Further, the “MIC (μmol/L) 1841 48 h” value in assay [1] (1841 (serotype D, 48 h, pH 7.5)) was determined as 56 µmol/L (≈ 129 µg/mL).

For the compound gu-OIOIORPVYOPRPRPPHPRR-OH [Api813], in assay [2] (setting [6]), the “MIC (mg/L) KN99α 24 h” value fell in the range of 4 to 8 mg/L. Further, the “MIC (mg/L) KN99α 48 h” value in assay [2] (setting [7]) is 8 mg/L. Further, the “MIC (mg/L) H99 24 h” value in assay [3] (setting [6]) amounted to 4 mg/L. Further, the “MIC (mg/L) H99 48 h” value in assay [3] (setting [7]) fell in the range of 4 to 8 mg/L. For the same compound, the “MIC (μmol/L) 1841 24 h” value in assay [1] (broth microdilution, 50% SAB in phosphate buffer pH 7.5, 5 × 10^4 CFU/mL, 30°C, read after 24 h, mean of six replicates (n = 6)) was 3.1 µmol/L. For the same compound, the “MIC (μmol/L) 1841 48 h” value in assay [1] (broth microdilution, 50% SAB in phosphate buffer pH 7.5, 5 × 10^4 CFU/mL, 30°C, read after 48 h, n = 6) is 3.1 µmol/L. In addition, in assay [1] (setting [6]), the “MIC (mg/L) 1841 24 h” value was found to be 8 mg/L. Also, the “MIC (mg/L) 1841 48 h” value in assay [1] (setting [7]) was 8 mg/L.
